± gives the expanded uncertainty stated by the source.
Assays:
[1] = Liquid, Vibrating tube method
[2] = refractive index (Na D-line) (dimensionless); conditions: 293.15 K; 101.33 kPa; Liquid; Standard Abbe refractometry

Question: Which results are given for CCCCCCCCC [nonane]?
Answer: mass density ([1]; 313.15 K, 100 kPa): 701.49 ± 4.2 kg/m3; mass density ([1]; 313.15 K, 1050 kPa): 702.34 ± 4.2 kg/m3; mass density ([1]; 313.15 K, 2030 kPa): 703.25 ± 4.2 kg/m3; mass density ([1]; 313.15 K, 3030 kPa): 704.17 ± 4.2 kg/m3; mass density ([1]; 313.15 K, 4040 kPa): 705.07 ± 4.2 kg/m3; mass density ([1]; 313.15 K, 5050 kPa): 705.96 ± 4.2 kg/m3; mass density ([1]; 313.15 K, 5980 kPa): 706.78 ± 4.2 kg/m3; mass density ([1]; 313.15 K, 7050 kPa): 707.7 ± 4.2 kg/m3; mass density ([1]; 313.15 K, 8060 kPa): 708.56 ± 4.3 kg/m3; mass density ([1]; 313.15 K, 9060 kPa): 709.4 ± 4.3 kg/m3; mass density ([1]; 313.15 K, 10070 kPa): 710.23 ± 4.3 kg/m3; mass density ([1]; 313.15 K, 11050 kPa): 710.92 ± 4.3 kg/m3; mass density ([1]; 313.15 K, 12030 kPa): 711.71 ± 4.3 kg/m3; mass density ([1]; 313.15 K, 13030 kPa): 712.51 ± 4.3 kg/m3; mass density ([1]; 313.15 K, 14040 kPa): 713.3 ± 4.3 kg/m3; mass density ([1]; 313.15 K, 15050 kPa): 714.09 ± 4.3 kg/m3; mass density ([1]; 313.15 K, 15980 kPa): 714.8 ± 4.3 kg/m3; mass density ([1]; 313.15 K, 17050 kPa): 715.61 ± 4.3 kg/m3; mass density ([1]; 313.15 K, 18060 kPa): 716.36 ± 4.3 kg/m3; mass density ([1]; 313.15 K, 19060 kPa): 717.1 ± 4.3 kg/m3; mass density ([1]; 313.15 K, 20070 kPa): 717.83 ± 4.3 kg/m3; mass density ([1]; 323.15 K, 100 kPa): 693.34 ± 4.2 kg/m3; mass density ([1]; 323.15 K, 1030 kPa): 694.03 ± 4.2 kg/m3; mass density ([1]; 323.15 K, 2040 kPa): 695.02 ± 4.2 kg/m3; mass density ([1]; 323.15 K, 3030 kPa): 695.98 ± 4.2 kg/m3; mass density ([1]; 323.15 K, 4040 kPa): 696.94 ± 4.2 kg/m3; mass density ([1]; 323.15 K, 5040 kPa): 697.88 ± 4.2 kg/m3; mass density ([1]; 323.15 K, 6040 kPa): 698.81 ± 4.2 kg/m3; mass density ([1]; 323.15 K, 7050 kPa): 699.74 ± 4.2 kg/m3; mass density ([1]; 323.15 K, 8060 kPa): 700.65 ± 4.2 kg/m3; mass density ([1]; 323.15 K, 9060 kPa): 701.55 ± 4.2 kg/m3; mass density ([1]; 323.15 K, 10060 kPa): 702.43 ± 4.2 kg/m3; mass density ([1]; 323.15 K, 11030 kPa): 703.16 ± 4.2 kg/m3; mass density ([1]; 323.15 K, 12040 kPa): 704.02 ± 4.2 kg/m3; mass density ([1]; 323.15 K, 13030 kPa): 704.87 ± 4.2 kg/m3; mass density ([1]; 323.15 K, 14040 kPa): 705.71 ± 4.2 kg/m3; mass density ([1]; 323.15 K, 15040 kPa): 706.54 ± 4.2 kg/m3; mass density ([1]; 323.15 K, 16040 kPa): 707.35 ± 4.2 kg/m3; mass density ([1]; 323.15 K, 17050 kPa): 708.16 ± 4.3 kg/m3; mass density ([1]; 323.15 K, 18060 kPa): 708.96 ± 4.3 kg/m3; mass density ([1]; 323.15 K, 19060 kPa): 709.74 ± 4.3 kg/m3; mass density ([1]; 323.15 K, 20060 kPa): 710.52 ± 4.3 kg/m3; mass density ([1]; 333.15 K, 100 kPa): 685.03 ± 4.1 kg/m3; mass density ([1]; 333.15 K, 1030 kPa): 685.98 ± 4.1 kg/m3; mass density ([1]; 333.15 K, 2020 kPa): 687 ± 4.1 kg/m3; mass density ([1]; 333.15 K, 3020 kPa): 688.03 ± 4.1 kg/m3; mass density ([1]; 333.15 K, 4020 kPa): 689.05 ± 4.1 kg/m3; mass density ([1]; 333.15 K, 5030 kPa): 690.05 ± 4.2 kg/m3; mass density ([1]; 333.15 K, 6030 kPa): 691.03 ± 4.2 kg/m3; mass density ([1]; 333.15 K, 7030 kPa): 692 ± 4.2 kg/m3; mass density ([1]; 333.15 K, 8040 kPa): 692.97 ± 4.2 kg/m3; mass density ([1]; 333.15 K, 9040 kPa): 693.91 ± 4.2 kg/m3; mass density ([1]; 333.15 K, 10050 kPa): 694.85 ± 4.2 kg/m3; mass density ([1]; 333.15 K, 11030 kPa): 695.64 ± 4.2 kg/m3; mass density ([1]; 333.15 K, 12020 kPa): 696.54 ± 4.2 kg/m3; mass density ([1]; 333.15 K, 13020 kPa): 697.44 ± 4.2 kg/m3; mass density ([1]; 333.15 K, 14020 kPa): 698.32 ± 4.2 kg/m3; mass density ([1]; 333.15 K, 15030 kPa): 699.2 ± 4.2 kg/m3; mass density ([1]; 333.15 K, 16030 kPa): 700.06 ± 4.2 kg/m3; mass density ([1]; 333.15 K, 17030 kPa): 700.91 ± 4.2 kg/m3; mass density ([1]; 333.15 K, 18040 kPa): 701.76 ± 4.2 kg/m3; mass density ([1]; 333.15 K, 19040 kPa): 702.59 ± 4.2 kg/m3; mass density ([1]; 333.15 K, 20050 kPa): 703.42 ± 4.2 kg/m3; mass density ([1]; 343.15 K, 100 kPa): 677.18 ± 4.1 kg/m3; mass density ([1]; 343.15 K, 1000 kPa): 678.15 ± 4.1 kg/m3; mass density ([1]; 343.15 K, 2010 kPa): 679.25 ± 4.1 kg/m3; mass density ([1]; 343.15 K, 3010 kPa): 680.33 ± 4.1 kg/m3; mass density ([1]; 343.15 K, 4020 kPa): 681.41 ± 4.1 kg/m3; mass density ([1]; 343.15 K, 5030 kPa): 682.46 ± 4.1 kg/m3; mass density ([1]; 343.15 K, 6030 kPa): 683.5 ± 4.1 kg/m3; mass density ([1]; 343.15 K, 7040 kPa): 684.52 ± 4.1 kg/m3; mass density ([1]; 343.15 K, 8040 kPa): 685.53 ± 4.1 kg/m3; mass density ([1]; 343.15 K, 9050 kPa): 686.53 ± 4.1 kg/m3; mass density ([1]; 343.15 K, 10050 kPa): 687.51 ± 4.1 kg/m3; mass density ([1]; 343.15 K, 11000 kPa): 688.33 ± 4.1 kg/m3; mass density ([1]; 343.15 K, 12010 kPa): 689.29 ± 4.1 kg/m3; mass density ([1]; 343.15 K, 13010 kPa): 690.24 ± 4.2 kg/m3; mass density ([1]; 343.15 K, 14020 kPa): 691.18 ± 4.2 kg/m3; mass density ([1]; 343.15 K, 15030 kPa): 692.1 ± 4.2 kg/m3; mass density ([1]; 343.15 K, 16030 kPa): 693.01 ± 4.2 kg/m3; mass density ([1]; 343.15 K, 17040 kPa): 693.91 ± 4.2 kg/m3; mass density ([1]; 343.15 K, 18040 kPa): 694.8 ± 4.2 kg/m3; mass density ([1]; 343.15 K, 19050 kPa): 695.68 ± 4.2 kg/m3; mass density ([1]; 343.15 K, 20050 kPa): 696.54 ± 4.2 kg/m3; mass density ([1]; 353.15 K, 100 kPa): 669.55 ± 4 kg/m3; mass density ([1]; 353.15 K, 1000 kPa): 670.57 ± 4 kg/m3; mass density ([1]; 353.15 K, 2000 kPa): 671.72 ± 4 kg/m3; mass density ([1]; 353.15 K, 3010 kPa): 672.85 ± 4 kg/m3; mass density ([1]; 353.15 K, 4010 kPa): 673.98 ± 4 kg/m3; mass density ([1]; 353.15 K, 5020 kPa): 675.08 ± 4.1 kg/m3; mass density ([1]; 353.15 K, 6020 kPa): 676.17 ± 4.1 kg/m3; mass density ([1]; 353.15 K, 7020 kPa): 677.25 ± 4.1 kg/m3; mass density ([1]; 353.15 K, 8030 kPa): 678.31 ± 4.1 kg/m3; mass density ([1]; 353.15 K, 9030 kPa): 679.35 ± 4.1 kg/m3; mass density ([1]; 353.15 K, 10040 kPa): 680.39 ± 4.1 kg/m3; mass density ([1]; 353.15 K, 11000 kPa): 681.26 ± 4.1 kg/m3; mass density ([1]; 353.15 K, 12000 kPa): 682.26 ± 4.1 kg/m3; mass density ([1]; 353.15 K, 13010 kPa): 683.26 ± 4.1 kg/m3; mass density ([1]; 353.15 K, 14010 kPa): 684.23 ± 4.1 kg/m3; mass density ([1]; 353.15 K, 15020 kPa): 685.21 ± 4.1 kg/m3; mass density ([1]; 353.15 K, 16020 kPa): 686.16 ± 4.1 kg/m3; mass density ([1]; 353.15 K, 17020 kPa): 687.1 ± 4.1 kg/m3; mass density ([1]; 353.15 K, 18030 kPa): 688.03 ± 4.1 kg/m3; mass density ([1]; 353.15 K, 19030 kPa): 688.95 ± 4.2 kg/m3; mass density ([1]; 353.15 K, 20040 kPa): 689.86 ± 4.2 kg/m3; mass density ([1]; 363.15 K, 100 kPa): 662.05 ± 4 kg/m3; mass density ([1]; 363.15 K, 990 kPa): 663.2 ± 4 kg/m3; mass density ([1]; 363.15 K, 2000 kPa): 664.41 ± 4 kg/m3; mass density ([1]; 363.15 K, 3010 kPa): 665.6 ± 4 kg/m3; mass density ([1]; 363.15 K, 4010 kPa): 666.77 ± 4 kg/m3; mass density ([1]; 363.15 K, 5020 kPa): 667.93 ± 4 kg/m3; mass density ([1]; 363.15 K, 6020 kPa): 669.07 ± 4 kg/m3; mass density ([1]; 363.15 K, 7030 kPa): 670.19 ± 4 kg/m3; mass density ([1]; 363.15 K, 8030 kPa): 671.3 ± 4 kg/m3; mass density ([1]; 363.15 K, 9040 kPa): 672.4 ± 4 kg/m3; mass density ([1]; 363.15 K, 10040 kPa): 673.47 ± 4 kg/m3; mass density ([1]; 363.15 K, 10990 kPa): 674.38 ± 4.1 kg/m3; mass density ([1]; 363.15 K, 12000 kPa): 675.44 ± 4.1 kg/m3; mass density ([1]; 363.15 K, 13010 kPa): 676.48 ± 4.1 kg/m3; mass density ([1]; 363.15 K, 14010 kPa): 677.5 ± 4.1 kg/m3; mass density ([1]; 363.15 K, 15020 kPa): 678.52 ± 4.1 kg/m3; mass density ([1]; 363.15 K, 16020 kPa): 679.51 ± 4.1 kg/m3; mass density ([1]; 363.15 K, 17030 kPa): 680.5 ± 4.1 kg/m3; mass density ([1]; 363.15 K, 18030 kPa): 681.47 ± 4.1 kg/m3; mass density ([1]; 363.15 K, 19040 kPa): 682.43 ± 4.1 kg/m3; mass density ([1]; 363.15 K, 20040 kPa): 683.38 ± 4.1 kg/m3; refractive index [2]: 1.4056 ± 0.004
